Among the data in patent US20070275960A1, “Phenyl and pyridyl compounds for inflammation and immune-related uses” (Synta Pharmaceuticals Corp., priority 2006, published 2007) are IC50 values, retold here.

A value given as a limit tells only on which side of the number the result lay.

One may read the IC50 as the concentration that inhibits the measured activity by half.

One experiment relates to IL-2 production. The experiment is described as follows: Inhibition of IL-2 production in PHA-activated Jurkat cells (ELISA). It is filed as cell-based. The note with it: Homo sapiens, Jurkat, 20 h, PHA 2.5 μg/mL, 20 hours at 37° C., IL-2 by ELISA. Here is the method: Jurkat cells were placed in a 96 well plate (0.5 million cells per well in 1% FBS medium) then a test compound of this invention was added at different concentrations. After 10 minutes, the cells were activated with PHA (final concentration 2.5 μg/mL) and incubated for 20 hours at 37° C. under CO2. The final volume was 200 μL. Following incubation, the cells were centrifuged and the supernatants collected and stored at −70° C. prior to assaying for IL-2 production. A commercial ELISA kit (IL-2 Eli-pair, Diaclone Research, Besancon, France) was used to detect production of IL-2, from which dose response curves were obtained. The IC50 value was calculated as the concentration at which 50% of maximum IL-2 production after stimulation was inhibited versus a non-stimulation control.
In turn, `Cc1cnccc1C(=O)Nc1ccc(-c2sc(-c3cnco3)cc2Cl)cc1` [Compound 112, 3-Methyl-N-[4-(3-chloro-5-oxazol-5-yl-thiophen-2-yl)-phenyl]-isonicotinamide] yielded a half-inhibitory concentration (IC50) of 6.7 nM.
For `Cc1cnccc1C(=O)Nc1ccc(-c2sc(-c3ccno3)cc2Cl)cc1` [Compound 113, 3-Methyl-N-[4-(3-chloro-5-isoxazol-5-yl-thiophen-2-yl)-phenyl]-isonicotinamide], the IC50 came out at 10 nM. The IC50 values of the last two compounds are within 1.5-fold of each other.
On the same count and under the same terms, under `O=C(Nc1ccc(-c2sc(-c3ccno3)cc2Cl)cc1)c1ccncc1F` [Compound 114, 3-Fluoro-N-[4-(3-chloro-5-isoxazol-5-yl-thiophen-2-yl)-phenyl]-isonicotinamide] stands 11 nM; under `Cc1cncnc1C(=O)Nc1ccc(-c2sc(-c3cnco3)cc2C)cc1` [Compound 115, 5-Methyl-pyrimidine-4-carboxylic acid [4-(3-methyl-5-oxazol-5-yl-thiophen-2-yl)-phenyl]-amide], 9.6 nM.
Same read-out and setting: then `Cc1cc(-c2cnco2)sc1-c1ccc(NC(=O)c2cccn2C)cc1` [Compound 116, 1-Methyl-1H-pyrrol-2-carboxylic acid [4-(3-methyl-5-oxazol-5-yl-thiophen-2-yl)-phenyl]-amide], with 4.8 nM; and `Cc1cc[nH]c1C(=O)Nc1ccc(-c2sc(-c3ccno3)cc2C)cc1` [Compound 117, 3-Methyl-1H-pyrrol-2-carboxylic acid [4-(3-methyl-5-isoxazol-5-yl-thiophen-2-yl)-phenyl]-amide], with 48.8 nM.
Take `Cc1ncsc1-c1ccc(NC(=O)c2c(F)cccc2F)cc1` [Compound 120, 2,6-Difluoro-N-[4-(4-methyl-thiazole-5-yl)-phenyl]-benzamide]: the IC50 was greater than 1000 nM.
`COC(=O)c1nc(C)c(-c2ccc(NC(=O)c3c(F)cccc3F)cc2)s1` [Compound 121, 2,6-Difluoro-N-[4-(4-methyl-2-methoxycarbonyl-thiazol-5-yl)-phenyl]-benzamide] displayed a half-maximal inhibitory concentration (IC50) of 133 nM.
Still for that read-out and setting: under `Cc1sc(-c2ncco2)cc1-c1ccc(NC(=O)c2c(F)cccc2F)cc1` [Compound 122, 2,6-Difluoro-N-[4-(2-methyl-5-oxazol-2yl-thiophen-3-yl)-phenyl]-benzamide] stands 1.9 nM; under `CCOC(=O)c1nc(-c2ccc(NC(=O)c3c(F)cccc3F)cc2)c(C)s1` [Compound 123, 2,6-Difluoro-N-[4-(5-methyl-2-ethoxycarbonyl-thiazol-4-yl)-phenyl]-benzamide], 123 nM; under `Cc1cnccc1C(=O)Nc1ccc(-c2cc(-c3ncco3)sc2C)cc1` [Compound 124, 3-Methyl-N-[4-(2-methyl-5-oxazol-2-yl-thiophen-3-yl)-phenyl]-isonicotinamide], 8.6 nM.
For `Cc1cc(-c2ccno2)sc1-c1ccc(NC(=O)Nc2c(F)cccc2F)cc1` [Compound 125, 1-(2,6-difluoro-phenyl)-3-[4-(5-isoxazol-5-yl-3-methyl-thiophen-2-yl)-phenyl]-urea], inhibition was half-maximal at 2.5 nM (IC50). Compared with the last compound, the IC50 is about 3.4-fold lower.
Same read-out and setting: then `Cc1cc(-c2cnco2)sc1-c1ccc(NC(=O)Nc2c(F)cccc2F)cc1` [Compound 126, 1-(2,6-difluoro-phenyl)-3-[4-(5-oxazol-5-yl-3-methyl-thiophen-2-yl)-phenyl]-urea], with 2.4 nM; and `Cc1cc(-c2cnco2)sc1-c1ccc(NC(=O)Nc2ccncc2F)cc1` [Compound 127, 1-(3-fluoro-pyridin-4-yl)-3-[4-(5-oxazol-5-yl-3-methyl-thiophen-2-yl)-phenyl]-urea], with 41 nM; and `Cc1cc(-c2ccno2)sc1-c1ccc(NCc2ccncc2F)cc1` [Compound 128, (3-Fluoro-pyridin-4-ylmethyl)-[4-(5-isoxazol-5-yl-3-methyl-thiophen-2-yl)-phenyl]-amine], with 19 nM.
In turn, `Cc1cc(-c2cnco2)sc1-c1ccc(NCc2ccncc2F)cc1` [Compound 129, (3-Fluoro-pyridin-4-ylmethyl)-[4-(5-oxazol-5-yl-3-methyl-thiophen-2-yl)-phenyl]-amine] registered an IC50 of 74.4 nM.

Staying with this experiment, now noted: PHA 2.5 μg/mL, 20 hours at 37° C., IL-2 by ELISA.
The compound `Cc1cc(-c2ccncc2)sc1-c1ccc(NC(=O)c2snnc2C)cc1` [Compound 118, 4-Methyl-[1,2,3]thiadiazole-5-carboxylic acid [4-(3-methyl-5-pyridin-4-yl-thiophen-2-yl)-phenyl]-amide] registered an IC50 of 6.1 nM.
Still for that read-out and setting: under `Cc1cc(-c2ccccn2)sc1-c1ccc(NC(=O)c2snnc2C)cc1` [Compound 119, 4-Methyl-[1,2,3]thiadiazole-5-carboxylic acid [4-(3-methyl-5-pyridin-2-yl-thiophen-2-yl)-phenyl]-amide] stands 4.8 nM.
